In patent US9498423B2, “Synergistic selenopeptide formulations for the protection of dermal papilla cells” (Sami Labs Limited, priority 2012, dated 2016):

Tested on: Human dermal papilla cells
Experiment: UVB stress protection of dermal papilla cells, cell viability by Neutral Red Uptake staining
Type: cell-based
Conditions: UVB 0.432 J/cm^2; Table 1
Protocol: Human dermal papilla cells were plated into a 96 well flat bottomed clear micro plate at a seeding density of 5000 cells per well. The 24 hour monolayer of cells was exposed to UVB dosages ranging from 0.0072 J/cm^2 to 1.0 J/cm^2 (stress signal) with or without sample (protective formulations) treatment. After exposure, the cells were incubated in a CO2 incubator for 48 hours and developed by NRU (Neutral Red Uptake) staining techniques to analyze cell viability. The absorbance due to viable cells is read at 492 nm in a micro plate reader.

C[Se]CC[C@H](NC(=O)CC[C@H](N)C(=O)O)C(=O)O [γ-L-glutamyl-L-Selenomethionine]
Protection of dermal papilla cells, UVB irradiation level 0.432 J/cm^2: No protection
